Experimental findings from PubChem BioAssay AID1552 (Sanford-Burnham Center for Chemical Genomics, 2009) are described below.

Molecules are shown by their SMILES. Active and inactive are the calls of the source. The rule behind the calls is not given here.

Chain of Ubiquitin-conjugating enzyme E2 N (Homo sapiens) (P61088 whole entry, looked up): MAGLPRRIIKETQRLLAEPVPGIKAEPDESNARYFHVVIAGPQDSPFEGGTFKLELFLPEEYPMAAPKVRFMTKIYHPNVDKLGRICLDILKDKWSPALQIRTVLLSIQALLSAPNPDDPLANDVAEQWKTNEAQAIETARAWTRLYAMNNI

This experiment addresses Ubiquitin-conjugating enzyme E2 N (Homo sapiens) (UniProt P61088). Briefly: NMR detection of UBE2N ligand binding – biophysical, purified protein (AID 1552). As to conditions: NMR binding to purified UBE2N.
Turning to `CC(=O)Oc1c(-c2ccccc2)oc2c(CC=C(C)C)c3c(c(OC(C)=O)c2c1=O)C=CC(C)(C)O3`, the Kd is > 4 mM (inactive).

Regarding `NC(=O)NC1C=CS(=O)(=O)C1` (centres undefined), the Kd was > 4 mM (inactive).

With `O=C(O)CSCC(=O)Nc1cccc(O)c1`, the Kd is > 4 mM (inactive).

Turning to `O=C(Nc1nc2c(s1)CCCC2)c1cccnc1`, the Kd is > 4 mM (inactive).

Take `Cc1cc(N)n(-c2ccccc2)n1`: the Kd is > 4 mM (inactive).

For `COc1cc(-c2csc(C)n2)ccc1O`, the Kd is > 4 mM (inactive).

Take `CC1=[N+]([O-])C2(N)CCc3c(no[n+]3[O-])C2(O)C1` (centres undefined): the Kd was > 4 mM (inactive).

Regarding `CO[C@H]1[C@@H](O)[C@@H](C)O[C@H](O[C@H]2CCC3(C)C4CCC5(C)[C@@H](C6=CC(=O)OC6)CC[C@]5(O)[C@@H]4CC[C@]3(O)C2)[C@@H]1O` (some centres undefined), the Kd is > 4 mM (inactive).

Regarding `COc1ccc(Cc2nccc3cc(OC)c(OC)cc23)cc1OC`, the Kd was > 4 mM (inactive).

As for `Cc1ccc(/C=N/NC(N)=O)o1`, the Kd was > 4 mM (inactive).

Regarding `COC(=O)c1noc(C)c1C(C)=O`, the Kd is > 4 mM (inactive).

Take `Cc1nc(-c2ccc(C(=O)N3CCOCC3)cc2)cs1`: the Kd is > 4 mM (inactive).

Turning to `S=c1[nH]ncn1-c1ccccc1`, the Kd was > 4 mM (inactive).

Turning to `Cc1cc2c(=O)n(C)c(SCC(N)=O)nc2s1`, the Kd was > 4 mM (inactive).

As for `CN1CCC(=NNC(=O)c2ccco2)CC1`, the Kd was > 4 mM (inactive).

`CC(=O)N1CCN(c2ccc(N)cc2)CC1`: the Kd was > 4 mM (inactive).

Take `O=C(Nc1cnccn1)c1cccs1`: the Kd is > 4 mM (inactive).

On to `COc1ccc2c(c1OC)C(=O)O[C@H]2[C@H]1c2cc3c(cc2CCN1C)OCO3`, for which the Kd is > 4 mM (inactive).

Consider `Nc1ccnc(C(=O)O)c1`, for which the Kd was > 4 mM (inactive).

With `c1ccc(SCc2nc(-c3ccccn3)no2)cc1`, the Kd was > 4 mM (inactive).

For `CC(=O)N1N=C(N)SC1c1cccnc1` (centres undefined), the Kd is > 4 mM (inactive).

With `NC(=O)CSc1nnc(-c2ccncc2)o1`, the Kd is > 4 mM (inactive).

As for `OCc1cccc2nonc12`, the Kd is > 4 mM (inactive).

Turning to `C/C=C(\C)c1nnc(NC(=O)C(C)C)s1`, the Kd was > 4 mM (inactive).

For `Cc1ccc(C)n1NC(=O)c1cccs1`, the Kd was > 4 mM (inactive).

As to `O=C1CS/C(=N/N=C2CCCC2)N1`, the Kd is > 4 mM (inactive).

As to `CC(C)n1nnc2cc(C(=O)O)ccc21`, the Kd is > 4 mM (inactive).

Consider `CC(C)NC(=S)N1CCN(S(C)(=O)=O)CC1`, for which the Kd was > 4 mM (inactive).

Take `CCC(C)C(NC)C(=O)O` (centres undefined): the Kd was > 4 mM (inactive).

Take `CC(C(N)=O)N1C(=O)c2ccccc2C1=O` (centres undefined): the Kd is > 4 mM (inactive).

On to `O=S(=O)(CCN1CCCC1)c1ccccc1`, for which the Kd was > 4 mM (inactive).

For `CC(=O)NCCc1cc2ccc(C)c(C)c2[nH]c1=O`, the Kd is > 4 mM (inactive).

`C=C1CCC(C2CC(=O)OC2=O)C(=O)CCC2C1CC2(C)C` (centres undefined): the Kd is > 4 mM (inactive).

As to `C[n+]1cc2c3c(ccc2c2ccc4cc5c(cc4c21)OCO5)OCO3`, the Kd is > 4 mM (inactive).

`O=C(O)c1cccc(-n2cccc2)c1`: the Kd was > 4 mM (inactive).

Consider `Cc1cccc(C)c1N1C(=O)CCC1=O`, for which the Kd was > 4 mM (inactive).

Take `C/C=C(\C)C(=O)O[C@H]1C[C@@H](OC(C)=O)[C@@]2(C(=O)OC)CO[C@@H]3C2[C@]12CO[C@](O)(C(=O)OC)[C@H]2[C@](C)(C12O[C@@]1(C)[C@H]1C[C@@H]2OC2OC=C[C@@]21O)[C@@H]3O` (some centres undefined): the Kd was > 4 mM (inactive).

Turning to `Nc1ncnc(Cl)c1[N+](=O)[O-]`, the Kd was > 4 mM (inactive).

Regarding `COc1cc(O)cc(/C=C/c2ccccc2)c1`, the Kd is > 4 mM (inactive).

As for `Cc1nc2ccccc2c(=O)n1CCCn1ccnc1`, the Kd is > 4 mM (inactive).

As for `CC(C)(C)c1cc(NC(=O)c2cccnc2)no1`, the Kd is > 4 mM (inactive).

On to `Cc1nc2ccccc2c2c1C(=O)N(N)C2=O`, for which the Kd was > 4 mM (inactive).

Turning to `C[C@@H]1CC[C@@]2(OC1)OC1CC3C4CC=C5C[C@@H](O)CC[C@]5(C)C4CC[C@]3(C)C1[C@@H]2C` (some centres undefined), the Kd is > 4 mM (inactive).

Consider `c1ccc(-c2nsc(N3CCCNCC3)n2)cc1`, for which the Kd was > 4 mM (inactive).

As for `Cc1ccc(C(=O)N2CCC(C(=O)O)CC2)cc1`, the Kd was > 4 mM (inactive).

As to `CCc1ccccc1NC(=O)c1ccoc1C`, the Kd was > 4 mM (inactive).

As for `CC(=O)N1CCc2cc(NC(=O)c3ccc(C)cc3)ccc21`, the Kd is > 4 mM (inactive).

For the compound `COc1ccc(Cl)cc1NC(=O)c1ccco1`, the Kd is > 4 mM (inactive).

As for `OC[C@H]1O[C@@](CO)(O[C@@H]2O[C@H](CO)[C@@H](O)[C@H](O)[C@H]2O)[C@@H](O[C@@H]2O[C@H](CO)[C@@H](O)[C@H](O)[C@H]2O)[C@@H]1O`, the Kd was > 4 mM (inactive).

Turning to `CC(=O)NC1=NN(c2ccccc2)C(=O)C1`, the Kd is > 4 mM (inactive).

`OC(c1ccccc1)c1ccccn1` (centres undefined): the Kd is > 4 mM (inactive).

Consider `CN(C)c1nc(N2CCOCC2)nc(N2CCOCC2)n1`, for which the Kd is > 4 mM (inactive).

In the case of `O=C1CCC([N+](=O)[O-])C(c2ccccc2F)N1` (centres undefined), the Kd is > 4 mM (inactive).

Regarding `CCS(=O)(=O)N1CCN(c2ccccc2F)CC1`, the Kd was > 4 mM (inactive).

With `NC(=O)C(=O)Nc1nc(-c2ccccc2)cs1`, the Kd is > 4 mM (inactive).

As to `COC(=O)C1[C@H]2C[C@H]3c4[nH]c5ccccc5c4CCN3C[C@@H]2CC[C@@H]1O` (some centres undefined), the Kd is > 4 mM (inactive).

As to `NC(=O)Cn1nc(-c2ccc(F)cc2)ccc1=O`, the Kd was > 4 mM (inactive).

Consider `NC1=NC(=O)/C(=C/c2cccc([N+](=O)[O-])c2)S1`, for which the Kd was > 4 mM (inactive).

In the case of `c1cnc(N2CCNCC2)nc1`, the Kd was > 4 mM (inactive).

With `O=C(Nc1ccccn1)C(=O)N1CCCC1`, the Kd was > 4 mM (inactive).

With `NC[C@H]1O[C@H](O[C@H]2[C@H](O)[C@@H](O[C@H]3O[C@H](CO)[C@@H](O)[C@H](N)[C@H]3O)[C@H](N)C[C@@H]2N)[C@H](N)[C@@H](O)[C@@H]1O`, the Kd is > 4 mM (inactive).

For the compound `Cn1cc(Cl)c(C(=O)Nc2ccc(F)cc2F)n1`, the Kd was > 4 mM (inactive).

On to `CC(C)CCCC(C)C1CCC2C3CC(=O)[C@H]4C[C@@H](O)CC[C@]4(C)C3CC[C@]12C` (some centres undefined), for which the Kd was > 4 mM (inactive).

As to `O=C(O)C1CSC(c2cc3ccccc3nc2Cl)N1` (centres undefined), the Kd was > 4 mM (inactive).

For `CC1(C)Cc2nc3[nH]c(=S)[nH]c(=O)c3cc2CO1`, the Kd was > 4 mM (inactive).

As for `COc1nc(N2CCOCC2)nc(N)c1[N+](=O)[O-]`, the Kd is > 4 mM (inactive).

On to `COCC(=O)Nc1cc2c3c(c1)CCN3C(=O)CC2`, for which the Kd is > 4 mM (inactive).

As for `CCOC(=O)CSc1nnc(C)c(=O)[nH]1`, the Kd is > 4 mM (inactive).

For `COC(=O)Nc1nnc(-c2ccncc2)s1`, the Kd is > 4 mM (inactive).

With `Nc1nnc(C(F)(F)F)s1`, the Kd was > 4 mM (inactive).

On to `COC(=O)CSc1ncnc2c(C)csc12`, for which the Kd is > 4 mM (inactive).

In the case of `O=c1oc2c(O)c(O)cc3c(=O)oc4c(O)c(O)cc1c4c23`, the Kd was > 4 mM (inactive).

On to `COCc1cc(Cl)nc(-c2csc(C)n2)n1`, for which the Kd was > 4 mM (inactive).

In the case of `Nc1nnc(SCc2ccc(F)cc2Cl)s1`, the Kd is > 4 mM (inactive).

Turning to `CC(NC(=O)c1ccco1)C1CCCO1` (centres undefined), the Kd is > 4 mM (inactive).

Take `CSc1ncc(C(=O)O)n1Cc1ccccc1`: the Kd is > 4 mM (inactive).

Take `COc1cc(C/C=C/c2ccccc2)c(OC)cc1O`: the Kd was > 4 mM (inactive).

As to `CC(O)C(=O)N/N=C/c1ccccc1` (centres undefined), the Kd is > 4 mM (inactive).

Take `O=C1C2CCCCC2C(=O)N1c1nccs1` (centres undefined): the Kd is > 4 mM (inactive).

Consider `COC(=O)c1c(SC)nc(-c2ccccc2)[nH]c1=O`, for which the Kd was > 4 mM (inactive).

Regarding `Cn1cccc1C=C1C(=O)NC(=S)NC1=O`, the Kd is > 4 mM (inactive).

For the compound `CC1(C)O[C@H]2CC(=O)OC[C@]23[C@H]2CC[C@@]4(C)[C@H](c5ccoc5)OC(=O)[C@H]5O[C@]54[C@]2(C)C(=O)C[C@@H]13`, the Kd was > 4 mM (inactive).

As to `C[C@@H]1OC(O[C@H]2[C@H](OC(=O)[C@]34CCC(C)(C)CC3C3=CCC5[C@@]6(C)CC[C@H](OC7O[C@@H](C)[C@H](O[C@@H]8OC[C@@H](O)[C@H](O)[C@H]8O)[C@@H](O)[C@H]7O)C(C)(C)C6CC[C@@]5(C)[C@]3(C)CC4O)OC[C@H](O)[C@H]2O)[C@H](O)[C@H](O)[C@H]1O[C@@H]1O[C@H](CO)[C@@H](O)[C@H](O)[C@H]1O` (some centres undefined), the Kd was > 4 mM (inactive).

Consider `COc1c2occc2c(OC)c2c(=O)cc(C)oc12`, for which the Kd is > 4 mM (inactive).

Take `CCC(=O)Nc1cc(C(C)C)c(O)cc1C`: the Kd is > 4 mM (inactive).

In the case of `O=P(c1ccccc1)(c1ccccc1)C1CCOCC1`, the Kd is > 4 mM (inactive).

As for `NC1C2CC3CC1CC(O)(C3)C2` (centres undefined), the Kd was > 4 mM (inactive).

Take `COn1c(=O)c(-c2ccco2)[n+]([O-])c2ccccc21`: the Kd was > 4 mM (inactive).

For the compound `Cc1ccc(C2NS(=O)(=O)N=C2N)cc1` (centres undefined), the Kd is > 4 mM (inactive).

Turning to `Cc1ccc(C)n1NC(=O)c1ccco1`, the Kd is > 4 mM (inactive).

Consider `Nc1cc(=O)[nH]c(SCC(=O)NCc2ccccc2)n1`, for which the Kd was > 4 mM (inactive).

In the case of `COc1ccc2c3c1O[C@H]1C[C@@H](O)C=C[C@@]31CCN(C)C2`, the Kd was > 4 mM (inactive).

For the compound `CCCN1CCC(N2CCC(O)CC2)CC1`, the Kd is > 4 mM (inactive).

Consider `CC(C)CCCC(C)C1CCC2C3=CC[C@H]4C[C@@H](O)CC[C@]4(C)C3CC[C@@]21C` (some centres undefined), for which the Kd is > 4 mM (inactive).

By Kd is commonly meant a measure of binding affinity in units of concentration.
